{"source": "paper PMC6017062", "about": "“Probing the Inhibitor versus Chaperone Properties of sp^2-Iminosugars towards Human β-Glucocerebrosidase: A Picomolar Chaperone for Gaucher Disease” (Molecules : A Journal of Synthetic Chemistry and Natural …, 2018)", "key": {"[1]": {"biological_target": "T1, human β-glucocerebrosidase (GCase) (Homo sapiens, UniProt P04062, R534H)", "T1 construct": "purchased Genzyme (Genzyme Japan, Tokyo, Japan) / Sanofi Genzyme, Cambridge, MA, USA Cerezyme", "T1 sequence (P04062 40-536 R534H)": "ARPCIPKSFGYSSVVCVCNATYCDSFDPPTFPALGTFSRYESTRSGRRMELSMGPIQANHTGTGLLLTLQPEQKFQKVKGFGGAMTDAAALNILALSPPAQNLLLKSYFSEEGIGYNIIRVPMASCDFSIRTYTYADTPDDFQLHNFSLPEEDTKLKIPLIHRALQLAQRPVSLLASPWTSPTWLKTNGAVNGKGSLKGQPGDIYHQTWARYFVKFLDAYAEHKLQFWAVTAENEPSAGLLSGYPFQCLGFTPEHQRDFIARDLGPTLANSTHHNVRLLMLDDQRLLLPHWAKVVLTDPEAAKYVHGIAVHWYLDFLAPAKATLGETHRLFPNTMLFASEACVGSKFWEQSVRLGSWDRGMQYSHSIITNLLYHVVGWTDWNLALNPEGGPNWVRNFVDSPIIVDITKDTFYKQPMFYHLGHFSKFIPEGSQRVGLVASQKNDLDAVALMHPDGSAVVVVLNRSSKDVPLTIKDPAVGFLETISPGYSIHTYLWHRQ", "test": "Purified recombinant human GCase inhibition in vitro", "assay_type": "biochemical", "details": "for Ki: purified recombinant enzyme (Cerezyme), 4-MU glucopyranoside substrate", "procedure": "Comparative assessment of the inhibition abilities of 1–4 against human lysosomal glycosidases in cell lysates (in vitro enzyme assay; see Experimental Section) confirmed the selectivity pattern previously observed for the commercial enzymes: whereas GCase was responsive to μM concentrations of the sp^2-iminosugars, the activity of lysosomal α-glucosidase, α- and β-galactosidases, α- and β-mannosidases, and hexosaminidase was not affected at concentrations of up to 200 μM. The corresponding Ki values were determined at pH 7 and 5 using purified recombinant human GCase and 4-methylumbelliferone (4-MU)-conjugated […] as the substrate (Table 2).\nGCase activities were determined as above using purified human GCase, obtained from Genzyme (Genzyme Japan, Tokyo, Japan) in 0.1 M citrate buffer at pH 5 or pH 7 and 4-methylumbelliferone (4-MU)-conjugated β-D-glucopyranoside as the substrate. The reactions were terminated by adding 0.2 mL of 0.2 M glycine sodium hydroxide buffer (pH 10.7). The liberated 4-methylumbelliferone was measured in a black-well plate with a Perkin Elmer Luminescence Spectrometer, Waltham, MA, USA (excitation wavelength: 340 nm; emission: 460 nm)."}, "[2]": {"biological_target": "T2, amyloglucosidase (α-Glcase3) (Aspergillus niger, UniProt P69328)", "T2 construct": "purchased", "T2 sequence (P69328 25-640)": "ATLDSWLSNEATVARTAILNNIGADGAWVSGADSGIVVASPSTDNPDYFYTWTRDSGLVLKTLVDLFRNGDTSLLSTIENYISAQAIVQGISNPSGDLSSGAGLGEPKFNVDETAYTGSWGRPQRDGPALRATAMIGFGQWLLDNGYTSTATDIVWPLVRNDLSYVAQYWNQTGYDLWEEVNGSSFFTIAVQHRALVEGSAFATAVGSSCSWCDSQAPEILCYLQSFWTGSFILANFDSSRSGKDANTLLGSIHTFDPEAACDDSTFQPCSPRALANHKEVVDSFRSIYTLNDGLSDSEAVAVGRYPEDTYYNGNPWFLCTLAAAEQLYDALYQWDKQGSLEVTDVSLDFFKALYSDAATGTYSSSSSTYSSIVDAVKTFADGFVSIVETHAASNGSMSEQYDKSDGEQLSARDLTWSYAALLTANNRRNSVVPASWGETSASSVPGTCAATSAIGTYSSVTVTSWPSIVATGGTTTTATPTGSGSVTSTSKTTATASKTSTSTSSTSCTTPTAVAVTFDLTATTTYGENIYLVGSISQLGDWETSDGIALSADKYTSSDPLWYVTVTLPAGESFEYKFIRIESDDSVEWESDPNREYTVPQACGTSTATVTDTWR", "test": "Commercial glycosidase inhibition: amyloglucosidase (α-Glcase3)", "assay_type": "biochemical", "details": "mean ± SD, three determinations; competitive; n.i. = no inhibition detected at 1 mM", "source_text": "We first evaluated the inhibitory properties of the new nonreducing mono- and bicyclic sp^2-iminosugars 4–15 against a panel of commercial glycosidases that included the α-glucosidases maltase (yeast maltase; α-Glcase1) and isomaltase (α-Glcase2) from Saccharomyces cerevisiae and amyloglucosidase (α-Glcase3) from Aspergillus niger, the β-glucosidases from almonds (β-Glcase1) and bovine liver (β-Glcase2), the α-galactosidase from green coffee beans (α-Galase), the β-galactosidase from Escherichia coli (β-Galase), and the α-mannosidase from Jack bean (α-Manase).\nInhibition constant (Ki) values were determined by spectrophotometrically measuring the residual hydrolytic activities of the glycosidases against the respective o- (for β-galactosidase from E. coli) or p-nitrophenyl α- or β-D-glycopyranoside (for other glycosidases) in the presence of the iminosugars. Each assay was performed in phosphate buffer or phosphate-citrate buffer (for α- or β-mannosidase and amyloglucosidase) at the optimal pH for the enzymes. The reactions were initiated by addition of the enzyme to a solution of the substrate in the absence or presence of various inhibitor concentrations. The mixture was incubated for 10–30 min at 37 °C or 55 °C (for amyloglucosidase) and the reaction was quenched by addition of 1 M Na2CO3. Reaction times were appropriate to obtain 10–20% conversion of the substrate in order to achieve linear rates. The absorbance of the resulting mixture was determined at 405 nm. Approximate value of Ki was determined from the slope of Dixon plots using a fixed concentration of substrate (around the Km value for the different glycosidases) and various concentrations of inhibitor. Full Ki determinations and enzyme inhibition mode were determined from the slope of Lineweaver–Burk plots and double reciprocal analysis."}}, "note": "Read-outs that look alike come from different tables or passages of the source."}
{"smiles": "CCCCCCCCN=C1SCC2C(O)C(O)C(O)CN12", "note": "(stereo not drawn) [Compound 4, 1-Deoxy-6-thio-5-N,6-S-(N′-octyliminomethylidene)nojirimycin]", "values": [{"measurement": "fold stronger GCase inhibition of nonreducing vs reducing partner", "setting": "[1]; 3 vs 1, 4 vs 2", "result": "~20", "unit": "fold"}, {"measurement": "fold enhancement of GCase inhibition potency upon replacement of O-6 by sulfur, pH 5", "setting": "[1]; pH 5, 2 vs 1, 4 vs 3", "result": 107, "unit": "fold"}, {"measurement": "Ki", "setting": "[1]; pH 5, read-out: Ki human GCase, pH 5", "result": "59 ± 3.5", "unit": "nM"}, {"measurement": "fold enhancement of GCase inhibition potency upon replacement of O-6 by sulfur, pH 7", "setting": "[1]; pH 7, 2 vs 1, 4 vs 3", "result": 130, "unit": "fold"}, {"measurement": "Ki", "setting": "[1]; pH 7, read-out: Ki human GCase, pH 7", "result": "13 ± 1.1", "unit": "nM"}, {"measurement": "Ki α-Glcase3", "setting": "[2]", "result": "n.i."}]}
